Values of other authors, collected in patent US20200330378A1, “TASTE-ENHANCED C[…] EMULSION SYRUP COMPOSITIONS” (ICDPHARMA LTD., priority 2018, published 2020).

Assays:
[1] = patients with insomnia; 160 mg dose of CBD compared to placebo
[2] = 75-300 mg of CBD taken daily
[3] = test system: human lung tumors implanted into rats and mice
[4] = subjects given THC

Compound	length of sleep [1]	symptoms of REM sleep behavior disorder [2]	reduction in tumor mass and volume ([3]; human lung tumors implanted into rats and mice)	reduction of cancerous lesions in the lungs ([3]; rats and mice)	amount of time to fall asleep [4]
C=C(C)[C@@H]1CCC(C)=C[C@H]1c1c(O)cc(CCCCC)cc1O [CBD, cannabidiol]	increased	reduce or eliminate entirely			
CCCCCc1cc(O)c2c(c1)OC(C)(C)[C@@H]1CCC(C)=C[C@@H]21 [THC, tetrahydrocannabinol]			≤ 50%	around 60%	significant decrease
